Measurements from ChEMBL document CHEMBL6153052, “Development of molecular Trojan horses targeting New Delhi metallo-β-lactamase-1 for the restoration of meropenem susceptibility in drug-resistant bacteria” (Eur J Med Chem, 2025).
pIC50: −log10 of the molar value. Values after ≈ are worked out from the molar mass of the structure shown. Active and inactive are the calls of the source. The calls are words filed in the database; no cut-off is given here.

Legend:
[1] = target: Metallo-beta-lactamase type 2 (Bacteria) (UniProt C7C422); test: Inhibition of NDM-1 (unknown origin) using nitrocefin as substrate assessed as residual activity at 64 ug/ml preincubated for 15 mins followed by substrate addition by absorbance based assay relative to control; details: dose 64.0 µg/ml
[2] = target: T1, Metallo-beta-lactamase type 2 (Bacteria, UniProt C7C422); test: Inhibition of NDM-1 (unknown origin) using nitrocefin as substrate assessed as residual activity preincubated for 15 mins followed by substrate addition by absorbance based assay
[3] = target: T1, Metallo-beta-lactamase type 2; test: Inhibition of NDM-1 (unknown origin)
[4] = target: T1, Metallo-beta-lactamase type 2; test: Inhibition of C-terminal His-tagged NDM-1 (unknown origin) extracted from Escherichia coli BL21 (DE3) using fluorescent cephalosporin as substrate preincubated for 10 mins followed by substrate addition by fluorescence based assay
[5] = tested on: Escherichia coli; test: Antibacterial activity against Escherichia coli BL21 assessed as minimum bacteriostatic concentration incubated for 20 hrs; type: functional
[6] = tested on: Klebsiella pneumoniae; test: Antibacterial activity against Klebsiella pneumoniae K-N-1 assessed as minimum bacteriostatic concentration incubated for 20 hrs; type: functional
[7] = tested on: Acinetobacter baumannii; test: Antibacterial activity against Acinetobacter baumannii aba assessed as minimum bacteriostatic concentration incubated for 20 hrs; type: functional
[8] = tested on: Escherichia coli; test: Antibacterial activity against Escherichia coli ZJ487 assessed as minimum bacteriostatic concentration incubated for 20 hrs; type: functional
[9] = tested on: Escherichia coli; test: Synergistic antibacterial activity against Escherichia coli BL21 assessed as minimum bacteriostatic concentration of meropenem at 8 ug/ml incubated for 20 hrs; type: functional; details: dose 8 µg/ml
[10] = tested on: Klebsiella pneumoniae; test: Synergistic antibacterial activity against Klebsiella pneumoniae K-N-1 assessed as minimum bacteriostatic concentration of meropenem at 8 ug/ml incubated for 20 hrs; type: functional; details: dose 8 µg/ml
[11] = tested on: Acinetobacter baumannii; test: Synergistic antibacterial against Acinetobacter baumannii aba assessed as minimum bacteriostatic concentration of meropenem at 8 ug/ml incubated for 20 hrs; type: functional; details: dose 8 µg/ml
[12] = tested on: Escherichia coli; test: Synergistic antibacterial activity against Escherichia coli ZJ487 assessed as minimum bacteriostatic concentration of meropenem at 8 ug/ml incubated for 20 hrs; type: functional; details: dose 8 µg/ml
[13] = tested on: Escherichia coli; test: Synergistic antibacterial activity against Escherichia coli BL21 assessed as fractional inhibitory concentration index at 8 ug/ml incubated for 20 hrs in presence of meropenem; type: functional; details: dose 8 µg/ml
[14] = tested on: Klebsiella pneumoniae; test: Synergistic antibacterial activity against Klebsiella pneumoniae K-N-1 assessed as fractional inhibitory concentration index at 8 ug/ml incubated for 20 hrs in presence of meropenem; type: functional; details: dose 8 µg/ml
[15] = tested on: Acinetobacter baumannii; test: Synergistic antibacterial against Acinetobacter baumannii aba assessed as fractional inhibitory concentration index at 8 ug/ml incubated for 20 hrs in presence of meropenem; type: functional; details: dose 8 µg/ml
[16] = tested on: Escherichia coli; test: Synergistic antibacterial activity against Escherichia coli ZJ487 assessed as fractional inhibitory concentration index at 8 ug/ml incubated for 20 hrs in presence of meropenem; type: functional; details: dose 8 µg/ml
[17] = tested on: THP-1; test: Cytotoxicity against human THP-1 cells assessed as survival rate at 128 ug/ml incubated for 48 hrs by MTT assay; type: functional; details: read-out: Survival
[18] = Cytotoxicity against HEK293T cells assessed as survival rate at 128 ug/ml incubated for 48 hrs by MTT assay; type: toxicity, cell-based, HEK-293T; details: human, at 128 µg/mL, read-out: Survival
[19] = tested on: Escherichia coli; test: Synergistic antibacterial activity against Escherichia coli BL21 expressing NDM-1 assessed as fractional inhibitory concentration index upto 64 ug/ml incubated for 24 hrs in presence of meropenem by microdilution checkerboard analysis; type: functional; details: dose <= 64 µg/ml
[20] = tested on: Escherichia coli; test: Synergistic antibacterial activity against Escherichia coli ZJ487 assessed as fractional inhibitory concentration index upto 64 ug/ml incubated for 24 hrs in presence of meropenem by microdilution checkerboard analysis; type: functional; details: dose <= 64 µg/ml
[21] = tested on: Escherichia coli; test: Synergistic bactericidal activity against Escherichia coli BL21 expressing NDM-1 at 16 ug/ml incubated for 8 hrs in presence of meropenem; type: functional, organism-based; details: dose 16.0 µg/ml
[22] = Metabolic stability in rat plasma assessed as parent compound remaining measured after 48 hrs by HPLC analysis; type: ADME, cell-free; details: read-out: Stability
[23] = Metabolic stability in rat liver homogenate assessed as parent compound remaining measured after 48 hrs by HPLC analysis; type: ADME, tissue-based; details: read-out: Stability
[24] = tested on: Escherichia coli; test: Synergistic bactericidal activity against Escherichia coli ZJ487 at 16 ug/ml incubated for 8 hrs in presence of meropenem; type: functional, organism-based; details: dose 16.0 µg/ml
[25] = tested on: Escherichia coli; test: Antibacterial activity against Escherichia coli ZJ487 infected in BALB/c mouse assessed as reduction in bacterial count in liver at 10 mg/kg, sc administered at every 12 hr interval measured after 42 hrs; type: functional, organism-based
[26] = tested on: Escherichia coli; test: Antibacterial activity against Escherichia coli ZJ487 infected in BALB/c mouse assessed as reduction in bacterial count in spleen at 10 mg/kg, sc administered at every 12 hr interval measured after 42 hrs; type: functional, organism-based
[27] = tested on: Escherichia coli; test: Synergistic antibacterial activity against Escherichia coli ZJ487 infected in BALB/c mouse assessed as reduction in bacterial count in liver at 10 mg/kg, sc administered at every 12 hr interval measured after 42 hrs in presence of meropenem; type: functional, organism-based
[28] = tested on: Escherichia coli; test: Synergistic antibacterial activity against Escherichia coli ZJ487 infected in BALB/c mouse assessed as reduction in bacterial count in spleen at 10 mg/kg, sc administered at every 12 hr interval measured after 42 hrs in presence of meropenem; type: functional, organism-based

Metallo-beta-lactamase type 2 (Bacteria), sequence (C7C422 whole entry): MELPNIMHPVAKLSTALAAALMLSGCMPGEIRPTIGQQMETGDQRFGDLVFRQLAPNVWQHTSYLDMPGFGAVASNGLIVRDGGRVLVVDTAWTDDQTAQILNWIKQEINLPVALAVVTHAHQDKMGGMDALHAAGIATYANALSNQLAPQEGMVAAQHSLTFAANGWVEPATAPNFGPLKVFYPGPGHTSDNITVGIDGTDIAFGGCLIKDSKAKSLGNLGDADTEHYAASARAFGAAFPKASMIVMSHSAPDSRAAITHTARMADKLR
T1 sequence (C7C422 whole entry): as above

In the case of `CS(=O)(=O)N[C@@H]1C(=O)N2C(C(=O)O)=C(C[Se]c3ccccc3C(=O)Nc3ccccc3)CS[C@H]12`, the Activity [1] was 48.9% and the pIC50 [2] was 4.16.
`O=C(O)C1=C(C[Se]c2ccccc2C(=O)Nc2ccccc2)CS[C@@H]2[C@H](NS(=O)(=O)c3cccs3)C(=O)N12` gave an Activity [1] of 51.6%.
`N#Cc1cc(Cl)cc(CN[C@@H]2C(=O)N3C(C(=O)O)=C(C[Se]c4ccccc4C(=O)Nc4ccccc4)CS[C@H]23)c1` gave an Activity [1] of 42.3%.
`O=C(O)C1=C(C[Se]c2ccccc2C(=O)Nc2ccccc2)CS[C@@H]2[C@H](NCc3ccccc3)C(=O)N12` gave an Activity [1] of 17.8% and a pIC50 [2] of 4.42.
With `O=C(O)C1=C(C[Se]c2ccccc2C(=O)Nc2ccccc2)CS[C@@H]2[C@H](NC(=O)n3cnnn3)C(=O)N12` the Activity [1] was 72.9%.
For `O=C(O)C1=C(C[Se]c2ccccc2C(=O)Nc2ccccc2)CS[C@@H]2[C@H](NCc3cc(Cl)nc(Cl)c3)C(=O)N12`, the Activity [1] was 68.1%.
Compound `O=C(O)C1=C(C[Se]c2ccccc2C(=O)Nc2ccccc2)CS[C@@H]2[C@H](NCc3cc(F)cc(Cl)c3)C(=O)N12` has an Activity [1] of 27.8% and a pIC50 [2] of 4.11.
With `O=C(O)C1=C(C[Se]c2ccccc2C(=O)Nc2ccccc2)CS[C@@H]2[C@H](NCc3cc(F)cc(F)c3)C(=O)N12` the Activity [1] was 41.1%.
`O=C(O)C1=C(C[Se]c2ccccc2C(=O)Nc2ccccc2)CS[C@@H]2[C@H](NCc3cccs3)C(=O)N12` gave an Activity [1] of 25.2% and a pIC50 [2] of 4.28.
Compound `O=C(O)C1=C(C[Se]c2ccccc2C(=O)Nc2ccccc2)CS[C@@H]2[C@H](NS(=O)(=O)Cc3ccccc3)C(=O)N12` has an Activity [1] of 63.8%.
`O=C(Cc1ccccc1)N[C@@H]1C(=O)N2C(C(=O)O)=C(C[Se]c3ccccc3C(=O)Nc3ccccc3)CS[C@H]12` showed an Activity [1] of 23.9% and a pIC50 [2] of 4.04.
In the case of `CC(C)(C)OC(=O)NCCCCCCn1[se]c2ccccc2c1=O`, the pIC50 [3] was 5.90.
`O=C(Cc1ccccc1)N[C@@H]1C(=O)N2C(C(=O)O)=C(CSc3cccc4cccnc34)CS[C@H]12` gave a pIC50 [4] of 5.64.
`O=C(O)C1=C(C[Se]c2ccccc2C(=O)Nc2ccccc2)CS[C@@H]2[C@H](NCc3cccc(Cl)c3)C(=O)N12` gave an Activity [1] of 60.9%.
In the case of `COc1cc(Cl)cc(CN[C@@H]2C(=O)N3C(C(=O)O)=C(C[Se]c4ccccc4C(=O)Nc4ccccc4)CS[C@H]23)c1`, the Activity [1] was 37.9%.
With `O=C(O)C1=C(C[Se]c2ccccc2C(=O)Nc2ccccc2)CS[C@@H]2[C@H](NS(=O)(=O)C3CC3)C(=O)N12` the Activity [1] was 44.1% and the pIC50 [2] was 3.94.
`O=c1c2ccccc2[se]n1-c1ncccc1-c1ccc(F)cc1` gave a pIC50 [3] of 4.95.
For `O=C(O)C1=C(C[Se]c2ccccc2C(=O)Nc2ccccc2)CS[C@@H]2[C@H](NCc3cc(Cl)cc(Cl)c3)C(=O)N12`, the Activity [1] was 6.53%, the pIC50 [2] was 5.15 and the MIC [5] was 128 µg/mL (≈ 198 µM). It also gave an MIC [6] of 64 µg/mL (≈ 98.9 µM), an MIC [7] of over 512 µg/mL and an MIC [8] of 32 µg/mL (≈ 49.4 µM). It also gave an MIC [9] of 16 µg/mL, an MIC [10] of 16 µg/mL and an MIC [11] of 32 µg/mL. The MIC [12] was 1 µg/mL, the “fractional inhibitory concentration index (FICI)” value [13] was 0.141 and the “fractional inhibitory concentration index (FICI)” value [14] was 0.281. For the same compound, the “fractional inhibitory concentration index (FICI)” value [15] was 0.078, the “fractional inhibitory concentration index (FICI)” value [16] was 0.093 and the viability at 128 µg/mL [17] was over 100%. The viability at 48 h, 128 ug/ml [18] was over 100%, the “fractional inhibitory concentration index (FICI)” value [19] was 0.25 and the “fractional inhibitory concentration index (FICI)” value [20] was 0.125. The Activity [21] was “Not active; Compound Did Not Eradicate Bacteria Completely But Maintained A State Of Significantly Lower Level Compared To Meropenem Alone”, the remaining at 48 h [22] was over 80% and the remaining at 48 h [23] was 59.3%. The Activity [24] was “Not active; Compound Did Not Eradicate Bacteria Completely But Maintained A State Of Significantly Lower Level Compared To Meropenem Alone”, the Activity [25] was “inactive” and the Activity [26] was “inactive”. For the same compound, the Activity [27] was “Active” and the Activity [28] was “Active”.
Work on `CCN(CC)[C@@H]1C(=O)N2C(C(=O)O)=C(C[Se]c3ccccc3C(=O)Nc3ccccc3)CS[C@H]12` yielded an Activity [1] of 70.2%.
